Source: PubChem BioAssay (NCI)
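Five compound concentrations were applied to cells in 96-well plates for 48 hours; endpoints were derived by simple linear interpolation of the resulting dose-response curve. GI50: concentration for 50% inhibition of growth. Definition used: TGI = concentration required for complete inhibition of growth.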

How the values were obtained:
Assay in all cases: NCI-60 cell line screen, 48 h
LOX IMVI melanoma = tested on: LOX IMVI melanoma
786-0 renal = tested on: 786-0 renal
MOLT-4 leukemia = tested on: MOLT-4 leukemia
LXFL 529 NSCLC = tested on: LXFL 529 NSCLC
OVCAR-8 ovarian = tested on: OVCAR-8 ovarian
SNB-75 CNS = tested on: SNB-75 CNS
M19-MEL melanoma = tested on: M19-MEL melanoma
OVCAR-3 ovarian = tested on: OVCAR-3 ovarian
HT29 colon = tested on: HT29 colon
XF 498 CNS = tested on: XF 498 CNS
EKVX NSCLC = tested on: EKVX NSCLC
A549 NSCLC = tested on: A549 NSCLC
SNB-19 CNS = tested on: SNB-19 CNS
KM20L2 colon = tested on: KM20L2 colon
TK-10 renal = tested on: TK-10 renal
SN12C renal = tested on: SN12C renal
MALME-3M melanoma = tested on: MALME-3M melanoma
CCRF-CEM leukemia = tested on: CCRF-CEM leukemia
NCI-H522 lung = tested on: NCI-H522 lung
HOP-62 NSCLC = tested on: HOP-62 NSCLC
K-562 leukemia = tested on: K-562 leukemia
SK-MEL-5 melanoma = tested on: SK-MEL-5 melanoma
SK-MEL-2 melanoma = tested on: SK-MEL-2 melanoma
SF-295 CNS = tested on: SF-295 CNS
HOP-18 NSCLC = tested on: HOP-18 NSCLC
SF-268 CNS = tested on: SF-268 CNS
HCT-116 colon = tested on: HCT-116 colon
NCI-H460 lung = tested on: NCI-H460 lung
SK-OV-3 ovarian = tested on: SK-OV-3 ovarian
HCC-2998 colon = tested on: HCC-2998 colon
SW-620 colon = tested on: SW-620 colon
OVCAR-4 ovarian = tested on: OVCAR-4 ovarian
RXF 393 renal = tested on: RXF 393 renal
CAKI-1 renal = tested on: CAKI-1 renal
OVCAR-5 ovarian = tested on: OVCAR-5 ovarian
SNB-78 CNS = tested on: SNB-78 CNS
RPMI-8226 leukemia = tested on: RPMI-8226 leukemia
SK-MEL-28 melanoma = tested on: SK-MEL-28 melanoma
HCT-15 colon = tested on: HCT-15 colon
M14 melanoma = tested on: M14 melanoma
UACC-62 melanoma = tested on: UACC-62 melanoma
KM12 colon = tested on: KM12 colon
DMS 114 small cell lung = tested on: DMS 114 small cell lung
IGROV1 ovarian = tested on: IGROV1 ovarian
RXF-631 renal = tested on: RXF-631 renal
UO-31 renal = tested on: UO-31 renal
DLD-1 colon = tested on: DLD-1 colon
ACHN renal = tested on: ACHN renal
COLO 205 colon = tested on: COLO 205 colon
NCI-H226 lung = tested on: NCI-H226 lung
NCI-H23 lung = tested on: NCI-H23 lung
UACC-257 melanoma = tested on: UACC-257 melanoma
U251 CNS = tested on: U251 CNS
DMS 273 small cell lung = tested on: DMS 273 small cell lung
SF-539 CNS = tested on: SF-539 CNS
HOP-92 NSCLC = tested on: HOP-92 NSCLC
A498 renal = tested on: A498 renal

## Nc1cccc(S(=O)(=O)NCC(=O)O)c1
LOX IMVI melanoma
  TGI: > 100000 nM
786-0 renal
  TGI: > 100000 nM
MOLT-4 leukemia
  TGI: > 100000 nM
LXFL 529 NSCLC
  TGI: > 100000 nM
OVCAR-8 ovarian
  TGI: > 100000 nM
SNB-75 CNS
  TGI: > 100000 nM
M19-MEL melanoma
  TGI: > 100000 nM
OVCAR-3 ovarian
  TGI: > 100000 nM
HT29 colon
  TGI: > 100000 nM
XF 498 CNS
  TGI: > 100000 nM
EKVX NSCLC
  TGI: > 100000 nM
A549 NSCLC
  TGI: > 100000 nM
SNB-19 CNS
  TGI: > 100000 nM
KM20L2 colon
  TGI: > 100000 nM
TK-10 renal
  TGI: > 100000 nM
SN12C renal
  TGI: > 100000 nM
MALME-3M melanoma
  TGI: > 100000 nM
CCRF-CEM leukemia
  TGI: > 100000 nM
NCI-H522 lung
  TGI: > 100000 nM
HOP-62 NSCLC
  TGI: > 100000 nM
K-562 leukemia
  TGI: > 100000 nM
SK-MEL-5 melanoma
  TGI: > 100000 nM
SK-MEL-2 melanoma
  TGI: > 100000 nM
SF-295 CNS
  TGI: > 100000 nM
HOP-18 NSCLC
  TGI: > 100000 nM
SF-268 CNS
  TGI: > 100000 nM
HCT-116 colon
  TGI: > 100000 nM
NCI-H460 lung
  TGI: > 100000 nM
SK-OV-3 ovarian
  TGI: > 100000 nM
HCC-2998 colon
  TGI: > 100000 nM
SW-620 colon
  TGI: > 100000 nM
OVCAR-4 ovarian
  TGI: > 100000 nM
RXF 393 renal
  TGI: > 100000 nM
CAKI-1 renal
  TGI: > 100000 nM
OVCAR-5 ovarian
  TGI: > 100000 nM
SNB-78 CNS
  TGI: > 100000 nM
RPMI-8226 leukemia
  TGI: > 100000 nM
SK-MEL-28 melanoma
  TGI: > 100000 nM
HCT-15 colon
  TGI: > 100000 nM
M14 melanoma
  TGI: > 100000 nM
UACC-62 melanoma
  TGI: > 100000 nM
KM12 colon
  TGI: > 100000 nM
DMS 114 small cell lung
  TGI: > 100000 nM
IGROV1 ovarian
  TGI: > 100000 nM
RXF-631 renal
  TGI: > 100000 nM
UO-31 renal
  TGI: > 100000 nM
DLD-1 colon
  TGI: > 100000 nM
ACHN renal
  TGI: > 100000 nM
COLO 205 colon
  TGI: > 100000 nM
NCI-H226 lung
  TGI: > 100000 nM
NCI-H23 lung
  TGI: > 100000 nM
UACC-257 melanoma
  TGI: > 100000 nM
U251 CNS
  TGI: > 100000 nM
DMS 273 small cell lung
  TGI: > 100000 nM
SF-539 CNS
  TGI: > 100000 nM

## CCC[CH2][Sn]1([CH2]CCC)[O]C(=O)CN=Cc2c(ccc3ccccc23)[O]1
LOX IMVI melanoma
  GI50: 242 nM
  TGI: 827 nM
786-0 renal
  GI50: 487 nM
  TGI: 1810 nM
MOLT-4 leukemia
  GI50: 319 nM
  TGI: 1140 nM
LXFL 529 NSCLC
  GI50: 107 nM
  TGI: 249 nM
OVCAR-8 ovarian
  GI50: > 100000 nM
  TGI: > 100000 nM
SNB-75 CNS
  GI50: 295 nM
  TGI: 1030 nM
M19-MEL melanoma
  GI50: 299 nM
  TGI: 1230 nM
OVCAR-3 ovarian
  GI50: 706 nM
  TGI: 1950 nM
HOP-92 NSCLC
  GI50: 171 nM
  TGI: 606 nM
HT29 colon
  GI50: 1080 nM
  TGI: 2360 nM
XF 498 CNS
  GI50: > 100000 nM
  TGI: > 100000 nM
EKVX NSCLC
  GI50: 552 nM
  TGI: 1860 nM
A549 NSCLC
  GI50: 1740 nM
  TGI: 3400 nM
SNB-19 CNS
  GI50: 229 nM
  TGI: 526 nM
KM20L2 colon
  GI50: 1090 nM
  TGI: 2290 nM
TK-10 renal
  GI50: 293 nM
  TGI: 743 nM
SN12C renal
  GI50: 374 nM
  TGI: 1390 nM
MALME-3M melanoma
  GI50: 134 nM
  TGI: 464 nM
NCI-H522 lung
  GI50: 60.5 nM
  TGI: 198 nM
HOP-62 NSCLC
  GI50: 3910 nM
  TGI: > 100000 nM
K-562 leukemia
  GI50: 245 nM
  TGI: 1090 nM
SK-MEL-5 melanoma
  GI50: 1810 nM
  TGI: > 100000 nM
SK-MEL-2 melanoma
  GI50: 251 nM
  TGI: 687 nM
SF-295 CNS
  GI50: 794 nM
  TGI: 2080 nM
HOP-18 NSCLC
  GI50: 223 nM
  TGI: 1520 nM
SF-268 CNS
  GI50: 351 nM
  TGI: 1180 nM
HCT-116 colon
  GI50: 1040 nM
  TGI: 2320 nM
NCI-H460 lung
  GI50: 1360 nM
  TGI: 2750 nM
SK-OV-3 ovarian
  GI50: 1110 nM
  TGI: 2310 nM
HCC-2998 colon
  GI50: 777 nM
  TGI: 2020 nM
SW-620 colon
  GI50: 184 nM
  TGI: 417 nM
OVCAR-4 ovarian
  GI50: 1000 nM
  TGI: 2190 nM
RXF 393 renal
  GI50: 136 nM
  TGI: 318 nM
CAKI-1 renal
  GI50: 62.9 nM
  TGI: 593 nM
OVCAR-5 ovarian
  GI50: 1930 nM
  TGI: 3350 nM
SNB-78 CNS
  GI50: 282 nM
  TGI: 1400 nM
RPMI-8226 leukemia
  GI50: 154 nM
  TGI: 529 nM
SK-MEL-28 melanoma
  GI50: 363 nM
  TGI: 1130 nM
HCT-15 colon
  GI50: 491 nM
  TGI: 1750 nM
M14 melanoma
  GI50: 367 nM
  TGI: 1340 nM
UACC-62 melanoma
  GI50: 229 nM
  TGI: 558 nM
KM12 colon
  GI50: 888 nM
  TGI: 2280 nM
DMS 114 small cell lung
  GI50: 139 nM
  TGI: 299 nM
IGROV1 ovarian
  GI50: 2480 nM
  TGI: > 100000 nM
RXF-631 renal
  GI50: 18.1 nM
  TGI: 33.1 nM
UO-31 renal
  GI50: 635 nM
  TGI: 1920 nM
DLD-1 colon
  GI50: 811 nM
  TGI: > 100000 nM
ACHN renal
  GI50: 319 nM
  TGI: 1050 nM
COLO 205 colon
  GI50: 401 nM
  TGI: 1470 nM
NCI-H23 lung
  GI50: 235 nM
  TGI: 1110 nM
UACC-257 melanoma
  GI50: 43.4 nM
  TGI: 285 nM
U251 CNS
  GI50: 351 nM
  TGI: 1200 nM
DMS 273 small cell lung
  GI50: 1000 nM
  TGI: 2220 nM
SF-539 CNS
  GI50: 1510 nM
  TGI: > 100000 nM
A498 renal
  GI50: 1550 nM
  TGI: > 100000 nM
